Assays:
CS0002 = assay: Cell Assay: CS0002; type: cell-based; conditions: cell assay code CS0002
CS0005 = assay: Cell Assay: CS0005; type: cell-based; conditions: cell assay code CS0005
MV4,11 cells = assay: FLT3 assay using MV4,11 cells (cellular proliferation, MTS); type: cell-based, human; conditions: cell assay code CS0001
Summary of the method: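 MV4,11 AML cells, […] switch to DMEM/10% FBS overnight, plated at 10,000 cells/well and exposed to serially diluted compounds in duplicate for 3 days at 37° C., 5% CO2. Proliferation read by MTS added for 2 h.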

FLT3 = biological target: T1, FLT3 (Homo sapiens, UniProt P36888); assay: Binding constant (Kd) measurement, phage-displayed kinase competition binding assay; conditions: for Binding Assay: FLT3(DKIN): FLT3(DKIN) construct; for Binding Assay: FLT3(JMminus): FLT3(JMminus) construct; for Binding Assay: FLT3(JMplus): FLT3(JMplus) construct
T1 construct: FLT3(DKIN); made in house
T1 sequence (P36888 610-943 limits assumed): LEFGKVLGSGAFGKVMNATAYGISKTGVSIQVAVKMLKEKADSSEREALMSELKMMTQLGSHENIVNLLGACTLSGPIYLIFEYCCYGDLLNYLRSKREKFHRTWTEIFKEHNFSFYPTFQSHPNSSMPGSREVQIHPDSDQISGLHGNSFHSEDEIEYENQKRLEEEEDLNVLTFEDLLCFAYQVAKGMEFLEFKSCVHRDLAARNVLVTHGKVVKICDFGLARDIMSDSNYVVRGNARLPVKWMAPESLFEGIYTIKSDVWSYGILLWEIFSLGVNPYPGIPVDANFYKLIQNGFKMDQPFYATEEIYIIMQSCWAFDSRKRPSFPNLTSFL
From the text: Binding Constant (Kd) Measurements for Small-Molecule-Kinase Interactions
The term “ND” represents non-determined values.

IC50 (CS0002) [µM]	Cell Assay: CS0005:IC50 (CS0005)	Cell Assay: CS0001:IC50 (MV4,11 cells)	Binding Assay: FLT3(DKIN) (FLT3)	Cell Assay: CS0002:IC50 (CS0002)	Binding Assay: FLT3(JMminus) (FLT3)	Binding Assay: FLT3(JMplus) (FLT3)	SMILES
> 10	+ + + +	+ + + +	+ + + +				Cc1cnc(C(=O)Nc2ccc(NC(=O)Nc3cc(C(C)(C)C)on3)cc2)cn1 [Compound O2]
> 10	+ + + +	+ + + +	+ + + +		+ + + +	+ + +	CC(C)(C)c1cc(NC(=O)Nc2ccc(NC(=O)c3ccccn3)cc2)no1 [Compound N188]
	+ + + +	+ + + +		+ +	+ + + +		Cc1ccc2[nH]c(C(=O)Nc3ccc(NC(=O)Nc4cc(C(C)(C)C)on4)cc3)cc2c1 [Compound N127]
	+ + +	+ + + +	+ + + +	+ +			COc1cc(C(=O)Nc2ccc(NC(=O)Nc3cc(C(C)(C)C)on3)cc2)nc2ccccc12 [Compound N137]
	+ + + +	+ + + +	+ + + +	+ +			Cc1ccc2sc(C(=O)Nc3ccc(NC(=O)Nc4cc(C(C)(C)C)on4)cc3)cc2c1 [Compound N133]
> 10	+ + +	+ + + +	+ + + +				CC(C)(C)c1cc(NC(=O)Nc2ccc(NC(=O)c3cccc(O)n3)cc2)no1 [Compound N131]
	+ + + +	+ + + +	+ + + +	+ +	+ + + +	+ + +	CC(C)(C)c1cc(NC(=O)Nc2ccc(NC(=O)c3ncccc3O)cc2)no1 [Compound N134]

Further lines, the compound ahead of its results:

SMILES	IC50 (CS0002) [µM]	Cell Assay: CS0005:IC50 (CS0005)	Cell Assay: CS0001:IC50 (MV4,11 cells)	Binding Assay: FLT3(DKIN) (FLT3)	Cell Assay: CS0002:IC50 (CS0002)	Binding Assay: FLT3(JMminus) (FLT3)	Binding Assay: FLT3(JMplus) (FLT3)
CC(C)(C)c1cc(NC(=O)Nc2ccc(OCc3ccc4ccccc4c3)cc2)no1 [Compound G3]		+ + + +	+ + + +	+ + + +	+ +		
CC(C)(C)c1cc(NC(=O)Nc2ccc(NC(=O)c3cscn3)cc2)no1 [Compound N57]	> 10	+ + + +	+ + + +	+ + + +			
CC(C)(C)c1cc(NC(=O)Nc2ccc(NC(=O)c3cc4cccc5c4n(c3=O)CC5)cc2)no1 [Compound N60]	> 10	+ + + +	+ + + +	+ + + +			
Cc1ccc(C(=O)Nc2ccc(NC(=O)Nc3cc(C(C)(C)C)on3)cc2)cc1 [Compound N92]	> 10	+ + + +	+ + + +	+ + + +			
CC(C)(C)c1cc(NC(=O)Nc2ccc(OCC3CCC3)cc2)no1 [Compound G39]		+ + +	+ + + +	+ + + +	+ +		
C=N/C(=N\C)Oc1cccc(C(=O)Nc2ccc(NC(=O)Nc3cc(C(C)(C)C)on3)cc2)c1 [Compound N74]		+ + + +	+ + + +		+ +	+ + + +	
Cc1cccc(C(=O)Nc2ccc(NC(=O)Nc3cc(C(C)(C)C)on3)cc2)n1 [Compound N121]		+ + + +	+ + + +	+ + + +	+ +		
CC(C)(C)c1cc(NC(=O)Nc2ccc(NC(=O)c3ccc4sccc4c3)cc2)no1 [Compound N122]	> 10	+ + + +	+ + + +	+ + + +			
CC(C)(C)c1cc(NC(=O)Nc2ccc(NC(=O)c3cn4nc(Cl)ccc4n3)cc2)no1 [Compound N9]		+ + + +	+ + + +	+ + + +	+ +		
CC(C)(C)c1cc(NC(=O)Nc2ccc(NC(=O)c3cccc(Cl)n3)cc2)no1 [Compound N4]		+ + + +	+ + + +	+ + + +	+ +		
CC(C)(C)c1cc(NC(=O)Nc2ccc(NC(=O)c3cccc[n+]3[O-])cc2)no1 [Compound N81]	> 10	+ + + +	+ + + +			+ + + +	
CC(C)(C)c1cc(NC(=O)Nc2ccc(NC(=O)c3cccc(F)n3)cc2)no1 [Compound N8]	> 10	+ + + +	+ + + +	+ + + +			
CC(C)(C)c1cc(NC(=O)Nc2ccc(NC(=O)c3csc(-c4ccncc4)n3)cc2)no1 [Compound N16]	> 10	+ + +	+ + + +	+ + + +			

From patent publication US20050267182A1, “Urea derivatives as FLT-3 modulators” (Ambit Biosciences Corporation, priority 2003, published 2005)
